Laboratory results from the supplement of paper PMC10307832.

Legend:
Test in all cases: relative viability (nuclei count vs DMSO), 5 days (fraction); higher = more cells survive
Lenalidomide = compound: Nc1cccc2c1CN(C1CCC(=O)NC1=O)C2=O [Lenalidomide]
Procedure, shortened: (§1)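 Five library-drug doses, separated by factors of √10, were pinned into 1536-well plates holding lung cancer cell lines after an overnight stay at 37 °C. Cells were fixed, permeabilised and Hoechst-stained in one step after 5 days without medium change, then imaged at 4×. Viability compares treated-well with vehicle-well nuclei, counted in MetaXpress, as a median across plates. Passing plates had control CV below 25% and at least one doubling.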

Luminespib = compound: CCNC(=O)c1noc(-c2cc(C(C)C)c(O)cc2O)c1-c1ccc(CN2CCOCC2)cc1 [Luminespib]
Procedure, shortened: as §1

Saracatinib = compound: CN1CCN(CCOc2cc(OC3CCOCC3)c3c(Nc4c(Cl)ccc5c4OCO5)ncnc3c2)CC1 [Saracatinib]
Procedure, shortened: as §1

Nilotinib = compound: Cc1cn(-c2cc(NC(=O)c3ccc(C)c(Nc4nccc(-c5cccnc5)n4)c3)cc(C(F)(F)F)c2)cn1 [Nilotinib]
Procedure, shortened: as §1

MIM1 = compound: CC1=CSC(=NC2CCCCC2)N1/N=C/C3=C(C(=C(C=C3)O)O)O [MIM1]
Procedure, shortened: as §1

| Cell Line | relative viability (Lenalidomide; 0.253 µM) | relative viability (Lenalidomide; 2.53 µM) | relative viability (Lenalidomide; 8 µM) | relative viability (Luminespib; 0.002 µM) | relative viability (Luminespib; 0.006325 µM) | relative viability (Luminespib; 0.01 µM, anchor plate) | relative viability (Luminespib; 0.02 µM) | relative viability (Luminespib; 0.06325 µM) | relative viability (Luminespib; 0.2 µM) | relative viability (Saracatinib; 0.02 µM) | relative viability (Saracatinib; 0.2 µM) | relative viability (Saracatinib; 0.6325 µM) | relative viability (Saracatinib; 2 µM) | relative viability (Nilotinib; 0.001 µM) | relative viability (Nilotinib; 0.003162 µM) | relative viability (Nilotinib; 0.01 µM) | relative viability (Nilotinib; 0.03162 µM) | relative viability (Nilotinib; 0.1 µM) | relative viability (MIM1; 0.2 µM) | relative viability (MIM1; 0.6325 µM) | relative viability (MIM1; 2 µM) | relative viability (MIM1; 6.325 µM) | relative viability (MIM1; 20 µM) | relative viability (Lenalidomide; 0.8 µM) |
| --- | --- | --- | --- | --- | --- | --- | --- | --- | --- | --- | --- | --- | --- | --- | --- | --- | --- | --- | --- | --- | --- | --- | --- | --- |
| NCI-H650 | 1.03 | 1.21 | 0.845 | 0.95 | 0.843 | 0.812 | 0.692 | 0.538 | 0.124 | 1.12 | 0.863 | 0.965 | 0.926 | 0.908 | 0.811 | 0.805 | 0.658 | 0.654 | 1.05 | 0.756 | 0.917 | 0.856 | 0.382 | – |
| CAL-12T | 0.979 | 1.27 | 1.16 | 1.03 | 0.933 | 0.47 | 0.591 | 0.136 | 0.13 | 1.06 | 0.996 | 1.14 | 0.903 | 0.928 | 0.91 | – | 0.688 | 0.654 | 1.05 | 0.819 | 0.92 | 0.708 | 0.434 | 1.04 |
| EBC-1 | 1.03 | 1.1 | 0.955 | 0.984 | 0.877 | – | 0.326 | 0.128 | 0.142 | 1.1 | 0.933 | 1.11 | 1.08 | 0.818 | 1.16 | 1.1 | 0.679 | 0.725 | 1.02 | 0.995 | 0.981 | 0.682 | 0.471 | 1.04 |
| NCI-H838 | 0.969 | 1.07 | 0.823 | 0.983 | 0.92 | 0.298 | 0.554 | 0.177 | 0.186 | 0.96 | 0.897 | 0.898 | 0.772 | 0.924 | 1.02 | 1.06 | 0.863 | 0.992 | 0.967 | 0.959 | 0.786 | 0.78 | 0.372 | 0.879 |
| NCI-H2405 | 0.969 | 1.01 | 0.831 | 1.07 | 0.837 | 0.686 | 0.831 | 0.274 | 0.212 | 0.985 | 0.861 | 0.775 | 0.52 | 0.994 | 0.975 | 0.966 | 0.821 | 0.551 | 1.02 | 1.08 | 1.05 | 0.742 | 0.573 | 0.909 |
| LU99A | 0.919 | 1.05 | 0.601 | 1.05 | 0.94 | 0.247 | 0.508 | 0.241 | 0.124 | 0.983 | 0.86 | 0.853 | 0.757 | 0.892 | 1.02 | 0.919 | 0.831 | 0.558 | 0.995 | 0.909 | 0.949 | 0.802 | 0.323 | 0.902 |
| NCI-H2126 | 1.01 | 1.08 | 0.788 | 0.967 | 0.962 | 0.919 | 0.646 | 0.756 | 0.26 | 1.07 | 0.965 | 0.931 | 0.816 | 0.995 | 1.09 | 1.03 | 0.937 | 0.601 | 1.04 | 0.91 | 1.04 | 0.897 | 0.688 | 0.859 |
| ChaGo-K-1 | 0.946 | 1.04 | 1.01 | 1.07 | 1.01 | 0.666 | 0.978 | 0.816 | 0.335 | 0.992 | 0.807 | 1.05 | 0.927 | 0.926 | 1.16 | 1.11 | 0.789 | 0.532 | 0.995 | 0.896 | 0.971 | 0.738 | 0.235 | 1.05 |
| NCI-H1648 | 0.93 | 1.29 | 0.705 | 0.671 | 0.811 | – | 0.837 | 0.742 | 0.413 | 0.895 | 0.553 | 1.52 | 0.727 | 0.79 | 0.738 | 0.829 | 0.605 | 0.757 | 1.01 | 0.929 | 0.989 | 0.635 | 0.283 | 0.732 |
| 201T | 0.985 | 1.01 | 0.96 | 0.973 | 0.896 | 1.06 | 0.88 | 0.969 | 0.295 | 0.99 | 0.826 | 0.923 | 0.722 | – | 1.11 | 0.979 | 1.02 | 0.47 | 1 | 1 | 0.987 | 0.555 | 0.483 | 0.835 |
| UMC-11 | 0.999 | 1.09 | 0.778 | 0.962 | 0.976 | 1.03 | 0.471 | 0.587 | 0.221 | 0.971 | 0.729 | 1.02 | 0.807 | 0.934 | 1.09 | 1.15 | 0.686 | 0.863 | 0.962 | 0.725 | 1.08 | 0.747 | 0.284 | 0.846 |
| A-427 | 1.04 | 1.15 | 0.918 | 1.06 | 0.906 | 1.03 | 0.793 | 0.395 | 0.244 | 1.03 | 0.904 | 0.935 | 0.924 | 0.955 | 1.06 | 1.08 | 0.871 | 0.182 | 1.05 | 0.746 | 0.973 | 0.783 | 0.218 | 0.979 |
| H3255 | 0.983 | 1.05 | 0.882 | 0.969 | 0.808 | 0.933 | 0.702 | 0.834 | 0.346 | 1.04 | 0.851 | 0.989 | 0.348 | 0.937 | 0.971 | – | 0.877 | 0.907 | 0.952 | 0.882 | 0.891 | 0.724 | 0.35 | 0.969 |
